The source of these data is US6458765B1, “Dolastatin 15 derivatives” (BASF Aktiengesellschaft, priority 1997, dated 2002).

Data set [1] deals with HT-29 colon carcinoma cells. It counts as cell-based.
The conditions of data set [2]: synthetic Dolastatin 15; cited from earlier work.
Data set [3] has as its system P388 lymphocytic leukemia (PS system) cell line. Particulars: National Cancer Institute's P388 (PS system); cited from earlier work.

As usually defined, the IC50 is the concentration needed to halve the response being measured. In data set [1], Xaw Val Xaa Pro Xbn [Compound 45] yielded an IC50 of 56 nM.
Same read-out and setting: for Xbk Val Xaa Pro Xcc [Compound 85] the value was 9500 nM.
In data set [1], Xbo Val Xaa Pro Xbr [Compound 63] gave an IC50 of 56 nM.
In the case of Xce Val Xaa Pro Xab [Compound 105], in data set [1], the IC50 stood at 18 nM.
Same read-out and setting: for Xcf Val Xaa Pro Xab [Compound 106] the value was 97 nM; for Xby Val Xaa Pro Xab [Compound 67], 340 nM.
Xbo Val Xaa Pro Xbn [Compound 47] yielded an IC50 in data set [1] of 23 nM.
With Xba Val Xaa Pro Xcb [Compound 93], in data set [1], half-maximal inhibition (IC50) required 1800 nM.
Take Xbo Val Xaa Pro Xbr [Compound 62]: the midpoint of inhibition in data set [1], the IC50, lay at 99 nM.
In data set [1], Xcg Val Xaa Pro Xab [Compound 108] came in with an IC50 of 7100 nM.
Substance Xbl Val Xaa Pro Xab [Compound 54] had an IC50 in data set [1] of 4.2 nM.
Xbo Val Xaa Pro Xbp [Compound 94] had an IC50 in data set [1] of 3000 nM.
The same measure, in the same setting: for Xbd Val Xaa Pro Xab [Compound 31] the value was 200 nM.
As for Xbw Val Xaa Pro Xab [Compound 58], it took 63 nM to reach half-maximal inhibition in data set [1] (IC50).
Xbo Val Xaa Pro Xbp [Compound 50] returned an IC50 in data set [1] of 89 nM.
As for “[N,N-Dimethyl-2-ethyl-2-phenylglycyl]-Val-MeVal-Pro-Pro-NHBn×HCl [Compound 4]”, the IC50 in data set [1] is 1.2 nM.
As for Xaw Val Xaa Pro Xbr [Compound 52], inhibition in data set [1] was half-maximal at 340 nM (IC50).
As to Xbe Val Xaa Pro Xab [Compound 33], the IC50 in data set [1] was 1200 nM.
The substance Xay Val Xaa Pro Xab [Compound 24] returned an IC50 in data set [1] of 28 nM.
In data set [1], Xbk Val Xaa Pro Xcd [Compound 99] displayed an IC50 of 3800 nM.
Xbs Val Xaa Pro Xbt [Compound 53] registered an IC50 in data set [1] of 5 nM.
With Xat Val Xaa Pro Xab [Compound 18], in data set [1], the IC50 came to 8.8 nM.
In data set [1], “Me2Aib-Val-MeVal-Pro-Pro-NHBn [Compound 3]” had an IC50 of 35 nM.
On to Dolastatin 15, for which the “solubility in aqueous systems” value in data set [2] is “poor solubility”. In data set [3], the “inhibition of growth of P388 cell line” value was “markedly inhibits the growth”.
In data set [1], Xba Val Xaa Pro Xcc [Compound 103] returned an IC50 of 110 nM.
On to Xau Val Xaa Pro Xab [Compound 76], for which inhibition in data set [1] was half-maximal at 0.23 nM (IC50).
Still for that read-out and setting: the same measure for Xas Val Xaa Pro Xab [Compound 16]: 0.73 nM.
Still for that read-out and setting: the same measure for “[N-Methyl-L-piperidine-2-carbonyl]-Val-MeVal-Pro-Pro-NHBn [Compound 1]”: 47 nM.
In data set [1], Xbz Val Xaa Pro Xab [Compound 68] yielded an IC50 of 420 nM.
For the substance Xau Val Xaa Pro Xbx [Compound 74], the IC50 in data set [1] amounted to 51 nM.
In data set [1], Xbd Val Xaa Pro Xab [Compound 30] yielded an IC50 of 6.1 nM.
Xaw Val Xaa Pro Xbp [Compound 48] showed an IC50 in data set [1] of 25 nM.
Xbe Val Xaa Pro Xab [Compound 32] registered an IC50 in data set [1] of 850 nM.
The same measure, in the same setting: for Xbm Val Xaa Pro Xab [Compound 44] the value was 48 nM; for Xbb Val Xaa Pro Xab [Compound 28], 49 nM; for Xba Val Xaa Pro Xab [Compound 27], 37 nM.
On to Xbo Val Xaa Pro Xbq [Compound 65], for which, in data set [1], the IC50 came to 97 nM.
The same measure, in the same setting: the same measure for Xbo Val Xaa Pro Xbp [Compound 49]: 88 nM.
As for Xbs Val Xaa Pro Xbt [Compound 60], the IC50 in data set [1] was 1.8 nM.
As for Xbi Val Xaa Pro Xbx [Compound 75], the midpoint of inhibition in data set [1], the IC50, lay at 850 nM.
The same measure, in the same setting: for Xba Val Xaa Pro Xbp [Compound 101] the value was 2100 nM.
Xbf Val Xaa Pro Xab [Compound 43]: the IC50 in data set [1] turned out to be 59 nM.
In data set [1], Xba Val Xaa Pro Xcc [Compound 102] returned an IC50 of 120 nM.
On the same count and under the same terms, the same measure for Xbg Val Xaa Pro Xab [Compound 35]: 140 nM; for Xao Val Xaa Pro Xab [Compound 12]: 370 nM.
Still for that read-out and setting: for Xbh Val Xaa Pro Xab [Compound 37] the value was 190 nM; for Xca Val Xaa Pro Xab [Compound 70], 7100 nM; for Xbi Val Xaa Pro Xab [Compound 38], 730 nM.
In the case of Xbo Val Xaa Pro Xbq [Compound 64], half-maximal inhibition in data set [1] (IC50) required 1700 nM.
Still for that read-out and setting: for Xba Val Xaa Pro Xcb [Compound 92] the value was 1500 nM; for Xaw Val Xaa Pro Xbq [Compound 51], 46 nM.
Consider Xau Val Xaa Pro Xbp [Compound 73], for which inhibition in data set [1] was half-maximal at 1.4 nM (IC50).
In the case of Xbl Val Xaa Pro Xab [Compound 55], in data set [1], the IC50 worked out at 56 nM.
Xba Val Xaa Pro Xcd [Compound 104] showed an IC50 in data set [1] of 3500 nM.
In data set [1], Xbc Val Xaa Pro Xab [Compound 29] came in with an IC50 of 36 nM.
Consider Xbf Val Xaa Pro Xab [Compound 34], for which the IC50 in data set [1] is 5 nM.
Still for that read-out and setting: the same measure for Xbl Val Xaa Pro Xab [Compound 42]: 340 nM; for Xbi Val Xaa Pro Xcd [Compound 98]: 6 nM; for Xbi Val Xaa Pro Xcc [Compound 81]: 130000 nM.
As to Xaw Val Xaa Pro Xbx [Compound 66], the IC50 in data set [1] is 340 nM.
Xae Val Xaa Pro Xab [Compound 8] returned an IC50 in data set [1] of 510 nM.
Xbk Val Xaa Pro Xab [Compound 41]: the midpoint of inhibition in data set [1], the IC50, lay at 7300 nM.
Take Xar Val Xaa Pro Xab [Compound 15]: in data set [1], the IC50 was found to be 170 nM.
On the same count and under the same terms, for Xau Val Xaa Pro Xbp [Compound 97] the value was 32 nM.
Take Xau Val Xaa Pro Xcc [Compound 90]: the IC50 in data set [1] was found to be 0.93 nM.
Xbi Val Xaa Pro Xcc [Compound 82] returned an IC50 in data set [1] of 11 nM.
In turn, Xam Val Xaa Pro Xab [Compound 10] displayed an IC50 in data set [1] of 130 nM.
In data set [1], Xbo Val Xaa Pro Xbx [Compound 72] returned an IC50 of 120 nM.
For Xbi Val Xaa Pro Xcb [Compound 79], the IC50 in data set [1] was 1700 nM.
“[N-Methyl-D-Pro]-Val-MeVal-Pro-Pro-NHBn [Compound 5]” returned an IC50 in data set [1] of 5 nM.
Xbi Val Xaa Pro Xcb [Compound 80] showed an IC50 in data set [1] of 67 nM.
Take Xau Val Xaa Pro Xcb [Compound 78]: in data set [1], the IC50 was determined as 4.3 nM.
On to Xbw Val Xaa Pro Xab [Compound 59], for which the IC50 in data set [1] was 190 nM.
For the substance Xax Val Xaa Pro Xab [Compound 22], the IC50 in data set [1] came to 640 nM.
The same measure, in the same setting: for Xbk Val Xaa Pro Xcc [Compound 84] the value was 1200 nM.
As for Xbv Val Xaa Pro Xab [Compound 57], in data set [1], the 50% inhibitory concentration (IC50) turned out to be 25 nM.
Same read-out and setting: for “[N-Methyl-D-piperidine-2-carbonyl]-Val-MeVal-Pro-Pro-NHBn [Compound 2]” the value was 0.68 nM; for Xbh Val Xaa Pro Xab [Compound 36], 6.2 nM.
In data set [1], Xbi Val Xaa Pro Xcd [Compound 83] registered an IC50 of 130 nM.
In the case of Xbo Val Xaa Pro Xbp [Compound 95], half-maximal inhibition in data set [1] (IC50) was put at 11 nM.
Substance Xat Val Xaa Pro Xab [Compound 17] gave an IC50 in data set [1] of 63 nM.
As for Xbi Val Xaa Pro Xab [Compound 39], half-maximal inhibition in data set [1] (IC50) was put at 25 nM.
Xad Val Xaa Pro Xap [Compound 13] showed an IC50 in data set [1] of 1 nM.
As for Xau Val Xaa Pro Xab [Compound 77], the IC50 in data set [1] worked out at 7.2 nM.
In data set [1], Xau Val Xaa Pro Xbp [Compound 96] gave an IC50 of 1.7 nM.
In turn, Xau Val Xaa Pro Xcd [Compound 91] had an IC50 in data set [1] of 0.83 nM.
For the substance Xbo Val Xaa Pro Xbn [Compound 46], it took 720 nM to reach half-maximal inhibition in data set [1] (IC50).
The same measure, in the same setting: for Xba Val Xaa Pro Xbp [Compound 100] the value was 2300 nM; for Xaq Val Xaa Pro Xab [Compound 14], 1.5 nM.
In the case of Xbk Val Xaa Pro Xab [Compound 40], the IC50 in data set [1] was found to be 560 nM.
